Experimental data taken from patent US12678438B2, “Treatment of cancer with CDK inhibitors” (THE TRUSTEES OF THE UNIVERSITY OF PENNSYLVANIA, priority 2019, dated 2026).

Key:
Assay type in all cases: cell-based, human
p-MED1 (p-T1457 MED1) = assay: Immunoblot of p-MED1 in AR-positive PCa cell lines (VCaP, LNCaP, 22RV1)
Description: Cell lysates were prepared with RIPA buffer (Boston Bioproducts, BP-115DG)-10 mM Tris-HCl pH 7.5, 1 mM EDTA, 400 mM NaCl, 0.5% NP-40 and 1 mM DTT, supplemented with protease inhibitor cocktail (Pierce, A32965) and phosphatase inhibitor (Thermo, 1861280). For immunoblotting 200 μg total protein extract was boiled in sample buffer and 15-25 μg aliquots were separated by SDS-PAGE and transferred onto Polyvinylidene Difluoride membrane (GE Healthcare, IPVH00010). The membrane was incubated for one hour in blocking buffer [Tris-buffered saline, 0.1% Tween (TBS-T), 5% nonfat dry milk followed by overnight incubation on a rocker at 4° C. with the primary antibody. Following a wash with TBS-T, the blot was incubated with horseradish peroxidase-conjugated secondary antibody for 2 hrs on a rocker at room temperature. The blots were washed again and signals were visualized using enhanced chemiluminescence system as per manufacturer's protocol (GE Healthcare) or Kwik Quant Imager (Kindle Biosciences). Primary antibodies used in the immunoblotting (IB), immunoprecipitation (IP), and Chromatin Immunoprecipitation sequencing (ChIP-seq) assays are as follows: AR_IP, IB, ChIP-Seq (Millipore, 06-680); pS81-AR_IB (Millipore, 07-1375-EMD); RNA Pol II_IP, IB (Abcam, ab5408); ERG_IB (Abcam, a92513); PSA_IB (Dako, A0562); H3-acetyl K27_IP, IB, ChIP Seq (Abcam, ab32104) cPARP_IB (Cell Signaling Technology, 9541s); Cleaved caspase-3_IB (Cell Signaling Technology, 9664t); CDK7_IP, IB (Cell Signaling Technology, 2916s); CDK9_IP, IB (Cell Signaling Technology, 2316s); CDK12_IB (Cell Signaling Technology, 11973S); CDK13_IB (Sigma Cat. #ABE1860); Cyclin H_IB (Cell Signaling Technology, 2927T); HA_IP, IB (Cell Signaling Technology, 2367s); ERK1/2_IP, IB (Cell Signaling Technology, 9107s); phospho-ERK1/2_IB (Cell Signaling Technology, 9101s); phospho-Threonine_IB (Cell Signaling Technology, 9381s); PP2A alpha_IB (Abcam, ab32104); phospho-MED1_IB (Abcam, ab60950); Anti-GST_IB (Cell Signaling Technology, 2624); Anti-AKT_IB (Cell Signaling Technology, 9272); Anti-phosphoAKT_IB(Cell Signaling Technology, 4060); Anti-phospho-AR (Ser-515) _IB (Abeam, ab128250); Anti-RNA Pol 'LIB (Abeam, ab5408); Anti-phospho-pol II (Ser-5)_IB (Abeam, ab ab5095); Anti-phospho-CDK7 (Tlu-170) _IB (Millipore, ABS567); MED1_IP, IB, ChIP Seq (Bethyl, abA300-793A), Ki67_IHC (Cell Signaling Technology, 9661), and GAPDH (14C10), IB (Cell Signaling Technology, 3683s) for loading control.

AR target genes = assay: qRT-PCR of DHT-induced AR target gene expression; details: LNCaP and VCaP, 100 nM THZ1
Description: For AR signaling stimulation experiments, cells were plated in complete media at required confluency. After 24 h cells were washed with DPBS and cultured in RPMI/DMEM without Phenol Red (Invitrogen, 11835030) and 10% charcoal-dextran stripped FBS (Gemini BioProducts, 100-119) for 72 h. Cells were then stimulated with 10 nM DHT for the specific time points.
Total RNA was isolated from cells using miRNeasy Mini Kit (Qiagen, 74106) and cDNA was synthesized from 1 μg total RNA using SuperScriptIV (Life Technologies, 18090200). qRT-PCR was performed using Fast SYBR Master Mix (Life Technologies, 4385617) or Taqman Fast Advance MMIX (Life Technologies, 4444964), and analyzed on QuantStudio3 (Applied Biosystems, USA). The target mRNA expression was quantified using ΔΔCt method, as normalized to GAPDH transcript levels. Primers were designed using Primer3 Input (version 0.4.0) (bioinfo.ut.ee/primer3-0.4.0/primer3) and synthesized by Integrated DNA Technologies.

[1] = test system: chromatin-bound p-MED1/MED1; assay: Chromatin-bound protein extraction and immunoblot; details: DHT-stimulated LNCaP, 6 h; THZ1 100 nM, enzalutamide 5 μM
Description: Chromatin bound protein extraction was performed following the protocol described in Pawar et al. Briefly, 10 million cells were collected and washed with DPBS, and were resuspended in 250 μl Buffer A (10 mM HEPES pH 7.9, 10 mM KCl, 1.5 mM MgCl2, 0.34 M sucrose, 10% glycerol, 1 mM DTT) supplemented with 0.1% TritonX-100 and incubated on ice for 10 min. The nuclei pellet was collected by centrifugation at 1300×g for 5 min at 4° C., washed in Buffer A and centrifuged again with the same settings. The nuclear pellet was then resuspended in Buffer B (3 mM EDTA, 0.2 mM EGTA, 1 mM DTT) and incubated on ice for 30 min. The chromatin pellet was collected by centrifugation at 1700×g for 5 min at 4° C., washed in Buffer B and centrifuged again with the same settings. The proteins were incubated on ice in Buffer B with 150 mM NaCl for 20 min and centrifuged at 1700×g for 5 min to remove proteins soluble in 150 mM salt concentrations. The pellet was then incubated in Buffer B with 300 mM NaCl on ice for 20 min and centrifuged again at 1700×g to obtain the final chromatin pellet. The chromatin pellet was dissolved in sample buffer, sonicated for 15 seconds, and boiled at 95° C. for 10 min. Samples were analyzed using Immunoblot analysis as described previously. All buffers were supplemented with Pierce protease inhibitor and Halt protease & phosphatase inhibitors.

AR p-S515 = assay: Immunoblot of AR p-S515; details: LNCaP, 200 nM, 12 h
Description: Cell lysates were prepared with RIPA buffer (Boston Bioproducts, BP-115DG)-10 mM Tris-HCl pH 7.5, 1 mM EDTA, 400 mM NaCl, 0.5% NP-40 and 1 mM DTT, supplemented with protease inhibitor cocktail (Pierce, A32965) and phosphatase inhibitor (Thermo, 1861280). For immunoblotting 200 μg total protein extract was boiled in sample buffer and 15-25 μg aliquots were separated by SDS-PAGE and transferred onto Polyvinylidene Difluoride membrane (GE Healthcare, IPVH00010). The membrane was incubated for one hour in blocking buffer [Tris-buffered saline, 0.1% Tween (TBS-T), 5% nonfat dry milk followed by overnight incubation on a rocker at 4° C. with the primary antibody. Following a wash with TBS-T, the blot was incubated with horseradish peroxidase-conjugated secondary antibody for 2 hrs on a rocker at room temperature. The blots were washed again and signals were visualized using enhanced chemiluminescence system as per manufacturer's protocol (GE Healthcare) or Kwik Quant Imager (Kindle Biosciences). […]

Q: With `CN(C)C/C=C/C(=O)Nc1ccc(C(=O)Nc2cccc(Nc3ncc(Cl)c(-c4c[nH]c5ccccc45)n3)c2)cc1` [THZ1] as the compound, how does the “phosphorylation at Ser5 of RNA Pol II” value (p-MED1 (p-T1457 MED1); VCaP and LNCaP, dose and time course) read?
A: The value was “reduced phosphorylation at Ser5 of RNA Poll”.

Q: And the “p-MED1 levels, dose and time course” value (p-MED1 (p-T1457 MED1); VCaP and LNCaP, standard growth conditions)?
A: Its value is “dose- and time-dependent decrease in p-MED1 levels”.

Q: What about the p-MED1 levels (p-MED1 (p-T1457 MED1); VCaP, LNCaP, 22RV1, standard culture conditions, 24 h (THZ1 and LDC also with DHT stimulation)) of the same compound?
A: Its p-MED1 levels is “reduced p-MED1 levels”.

Q: And the “DHT-induced AR target gene expression” value (AR target genes)?
A: The value was “phenocopied the reduction in DHT-induced gene expression”.

Q: And the “chromatin-bound levels of p-MED1/MED1” value [1]?
A: Its value is “complete loss in the chromatin-bound levels of p-MED1/MED1”.

Q: What about the “AR p-S515 levels” value (AR p-S515) of the same compound?
A: The value was “did not reduce AR p-S515 levels”.
